Experiments:
Experiment in all cases: selectivity, HiClamp system on oocytes
Format in all cases: cell-based
Settings in all cases: 10 µM
KV1.1 = target: T1, KV1.1 (Homo sapiens, UniProt Q09470)
T1 construct: expressed in transfected cells; host or cells: Xenopus laevis oocytes

KV1.2 = target: T2, KV1.2 (Homo sapiens, UniProt P16389)
T2 construct: expressed in transfected cells; host or cells: Xenopus laevis oocytes

KV1.4 = target: T3, KV1.4 (Homo sapiens, UniProt P22459)
T3 construct: expressed in transfected cells; host or cells: Xenopus laevis oocytes

KV1.5 = target: T4, KV1.5 (Homo sapiens, UniProt P22460)
T4 construct: expressed in transfected cells; host or cells: Xenopus laevis oocytes

KV1.6 = target: T5, KV1.6 (Homo sapiens, UniProt P17658)
T5 construct: expressed in transfected cells; host or cells: Xenopus laevis oocytes

KV2.1 = target: T6, KV2.1 (Homo sapiens, UniProt Q14721)
T6 construct: expressed in transfected cells; host or cells: Xenopus laevis oocytes
T6 sequence (Q14721 1-858): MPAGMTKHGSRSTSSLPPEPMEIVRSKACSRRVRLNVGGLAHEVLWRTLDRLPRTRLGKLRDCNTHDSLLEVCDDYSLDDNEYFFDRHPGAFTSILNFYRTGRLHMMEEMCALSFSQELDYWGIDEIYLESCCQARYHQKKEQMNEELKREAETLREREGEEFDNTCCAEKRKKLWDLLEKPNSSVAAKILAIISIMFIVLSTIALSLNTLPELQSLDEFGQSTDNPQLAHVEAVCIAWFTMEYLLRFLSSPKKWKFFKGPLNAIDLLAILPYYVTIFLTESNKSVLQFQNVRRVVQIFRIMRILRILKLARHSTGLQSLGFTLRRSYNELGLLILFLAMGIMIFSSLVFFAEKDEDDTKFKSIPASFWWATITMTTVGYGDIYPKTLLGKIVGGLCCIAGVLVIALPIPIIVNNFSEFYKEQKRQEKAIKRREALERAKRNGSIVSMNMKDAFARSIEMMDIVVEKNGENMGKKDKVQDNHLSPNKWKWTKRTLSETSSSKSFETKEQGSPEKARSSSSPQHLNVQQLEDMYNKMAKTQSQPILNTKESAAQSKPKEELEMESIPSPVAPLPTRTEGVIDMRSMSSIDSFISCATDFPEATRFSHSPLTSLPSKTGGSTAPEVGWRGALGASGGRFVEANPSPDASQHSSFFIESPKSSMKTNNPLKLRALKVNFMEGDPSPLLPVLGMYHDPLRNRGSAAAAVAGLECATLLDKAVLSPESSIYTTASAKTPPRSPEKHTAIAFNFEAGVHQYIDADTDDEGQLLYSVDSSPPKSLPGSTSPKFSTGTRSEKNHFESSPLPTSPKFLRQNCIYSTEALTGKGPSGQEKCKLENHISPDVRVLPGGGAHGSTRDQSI

KV4.2 = target: T7, KV4.2 (Homo sapiens, UniProt Q9NZV8)
T7 construct: expressed in transfected cells; host or cells: Xenopus laevis oocytes
T7 sequence (Q9NZV8 1-630): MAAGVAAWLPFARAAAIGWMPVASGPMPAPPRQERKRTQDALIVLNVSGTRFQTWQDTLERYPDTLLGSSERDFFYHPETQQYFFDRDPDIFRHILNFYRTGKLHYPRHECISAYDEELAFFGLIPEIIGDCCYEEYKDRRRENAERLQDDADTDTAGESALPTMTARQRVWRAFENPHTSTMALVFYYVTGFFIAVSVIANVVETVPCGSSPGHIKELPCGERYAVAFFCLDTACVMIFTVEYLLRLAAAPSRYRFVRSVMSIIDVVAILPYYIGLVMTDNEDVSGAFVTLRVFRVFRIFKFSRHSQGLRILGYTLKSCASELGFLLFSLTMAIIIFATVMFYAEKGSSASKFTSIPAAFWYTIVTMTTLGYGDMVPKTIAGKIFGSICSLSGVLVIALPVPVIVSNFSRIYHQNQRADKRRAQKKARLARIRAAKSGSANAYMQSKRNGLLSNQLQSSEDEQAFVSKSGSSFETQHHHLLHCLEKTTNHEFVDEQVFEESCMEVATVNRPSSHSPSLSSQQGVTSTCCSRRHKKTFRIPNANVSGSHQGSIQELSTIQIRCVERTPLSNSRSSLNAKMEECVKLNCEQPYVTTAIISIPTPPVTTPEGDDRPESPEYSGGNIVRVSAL

KV10.1 = target: T8, KV10.1 (Homo sapiens, UniProt O95259)
T8 construct: expressed in transfected cells; host or cells: Xenopus laevis oocytes
T8 sequence (O95259 1-989): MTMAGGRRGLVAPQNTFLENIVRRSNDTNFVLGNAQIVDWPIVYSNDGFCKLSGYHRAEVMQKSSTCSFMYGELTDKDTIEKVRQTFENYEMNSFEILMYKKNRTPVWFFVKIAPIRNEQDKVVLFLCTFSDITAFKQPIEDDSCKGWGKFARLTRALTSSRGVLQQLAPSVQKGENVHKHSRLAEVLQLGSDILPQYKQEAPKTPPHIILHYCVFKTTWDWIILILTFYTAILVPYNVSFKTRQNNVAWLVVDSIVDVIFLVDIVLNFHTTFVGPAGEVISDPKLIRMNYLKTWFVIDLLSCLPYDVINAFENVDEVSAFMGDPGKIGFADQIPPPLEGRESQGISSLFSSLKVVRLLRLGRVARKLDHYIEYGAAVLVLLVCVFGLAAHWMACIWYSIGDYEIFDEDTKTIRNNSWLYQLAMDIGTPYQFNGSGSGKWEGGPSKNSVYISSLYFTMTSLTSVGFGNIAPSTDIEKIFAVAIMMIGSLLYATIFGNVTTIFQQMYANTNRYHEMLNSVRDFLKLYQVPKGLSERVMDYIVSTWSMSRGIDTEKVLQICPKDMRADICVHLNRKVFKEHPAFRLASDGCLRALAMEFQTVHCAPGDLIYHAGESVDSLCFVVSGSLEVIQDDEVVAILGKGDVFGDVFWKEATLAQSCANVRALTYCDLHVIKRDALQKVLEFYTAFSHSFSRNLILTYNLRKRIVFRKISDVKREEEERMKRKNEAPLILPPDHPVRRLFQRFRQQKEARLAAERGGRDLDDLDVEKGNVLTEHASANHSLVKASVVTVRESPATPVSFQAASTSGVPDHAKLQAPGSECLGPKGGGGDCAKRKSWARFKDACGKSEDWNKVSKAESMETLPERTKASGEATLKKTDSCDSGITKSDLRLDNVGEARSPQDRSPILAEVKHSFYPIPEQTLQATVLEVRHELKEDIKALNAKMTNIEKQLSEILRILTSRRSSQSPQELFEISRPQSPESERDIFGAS

T4 sequence (P22460 whole entry): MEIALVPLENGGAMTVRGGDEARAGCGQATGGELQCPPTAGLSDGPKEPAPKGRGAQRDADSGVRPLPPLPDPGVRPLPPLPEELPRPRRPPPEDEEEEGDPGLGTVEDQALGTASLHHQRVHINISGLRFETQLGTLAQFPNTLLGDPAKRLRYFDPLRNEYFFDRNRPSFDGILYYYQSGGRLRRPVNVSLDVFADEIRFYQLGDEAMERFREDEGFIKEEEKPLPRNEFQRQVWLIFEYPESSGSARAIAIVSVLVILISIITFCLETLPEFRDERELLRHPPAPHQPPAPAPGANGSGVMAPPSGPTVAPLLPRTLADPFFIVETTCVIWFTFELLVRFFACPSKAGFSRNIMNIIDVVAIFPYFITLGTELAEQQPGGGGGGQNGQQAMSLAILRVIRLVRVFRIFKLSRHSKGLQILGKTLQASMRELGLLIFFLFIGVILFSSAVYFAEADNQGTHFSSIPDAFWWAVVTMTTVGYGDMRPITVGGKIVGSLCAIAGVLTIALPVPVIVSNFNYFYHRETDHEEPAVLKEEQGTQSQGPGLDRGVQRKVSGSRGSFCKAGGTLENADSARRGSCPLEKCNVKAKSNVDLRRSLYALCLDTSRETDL
T3 sequence (P22459 whole entry): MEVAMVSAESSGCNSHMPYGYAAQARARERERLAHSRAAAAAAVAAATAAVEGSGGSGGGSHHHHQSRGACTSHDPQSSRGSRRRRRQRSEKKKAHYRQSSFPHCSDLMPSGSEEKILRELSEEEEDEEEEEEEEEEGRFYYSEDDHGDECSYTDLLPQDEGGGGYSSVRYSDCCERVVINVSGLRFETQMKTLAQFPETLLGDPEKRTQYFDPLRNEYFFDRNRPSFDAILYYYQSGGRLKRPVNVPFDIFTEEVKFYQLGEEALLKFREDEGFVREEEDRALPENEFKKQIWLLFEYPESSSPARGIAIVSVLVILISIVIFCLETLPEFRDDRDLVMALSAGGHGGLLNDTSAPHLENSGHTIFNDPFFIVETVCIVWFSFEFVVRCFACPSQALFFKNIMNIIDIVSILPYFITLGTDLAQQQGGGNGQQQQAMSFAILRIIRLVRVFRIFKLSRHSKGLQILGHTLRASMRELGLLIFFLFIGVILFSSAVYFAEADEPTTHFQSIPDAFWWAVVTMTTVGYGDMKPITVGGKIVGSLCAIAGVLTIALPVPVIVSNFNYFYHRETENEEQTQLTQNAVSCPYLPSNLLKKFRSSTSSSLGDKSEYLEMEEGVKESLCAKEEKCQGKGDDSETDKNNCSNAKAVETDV
T5 sequence (P17658 whole entry): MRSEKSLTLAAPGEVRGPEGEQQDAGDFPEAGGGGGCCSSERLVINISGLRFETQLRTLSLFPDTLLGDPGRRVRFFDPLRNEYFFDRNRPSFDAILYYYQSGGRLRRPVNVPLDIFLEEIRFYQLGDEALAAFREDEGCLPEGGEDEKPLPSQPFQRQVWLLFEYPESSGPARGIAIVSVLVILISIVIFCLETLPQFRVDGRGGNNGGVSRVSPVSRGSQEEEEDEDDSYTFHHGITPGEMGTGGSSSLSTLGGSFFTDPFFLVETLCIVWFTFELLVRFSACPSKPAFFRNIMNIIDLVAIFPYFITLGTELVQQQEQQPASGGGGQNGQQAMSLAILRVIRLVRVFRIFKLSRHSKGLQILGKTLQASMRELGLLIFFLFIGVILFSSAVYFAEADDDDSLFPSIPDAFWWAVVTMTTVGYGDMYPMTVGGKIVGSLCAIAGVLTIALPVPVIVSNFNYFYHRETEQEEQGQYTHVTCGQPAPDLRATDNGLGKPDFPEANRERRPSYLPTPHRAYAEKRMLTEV
T2 sequence (P16389 whole entry): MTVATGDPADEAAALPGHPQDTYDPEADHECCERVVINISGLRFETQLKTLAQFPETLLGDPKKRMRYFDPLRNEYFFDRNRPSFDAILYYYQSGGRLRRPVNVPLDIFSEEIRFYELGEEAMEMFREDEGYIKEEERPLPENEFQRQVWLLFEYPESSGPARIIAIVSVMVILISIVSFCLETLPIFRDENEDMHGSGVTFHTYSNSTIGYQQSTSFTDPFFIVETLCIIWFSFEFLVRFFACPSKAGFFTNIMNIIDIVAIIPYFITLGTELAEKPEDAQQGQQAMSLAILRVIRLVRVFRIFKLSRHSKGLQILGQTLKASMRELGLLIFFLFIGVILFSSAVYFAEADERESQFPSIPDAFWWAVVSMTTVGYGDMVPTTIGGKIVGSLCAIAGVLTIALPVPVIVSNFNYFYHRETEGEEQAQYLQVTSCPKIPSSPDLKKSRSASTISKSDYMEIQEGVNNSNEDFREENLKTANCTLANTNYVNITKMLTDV
T1 sequence (Q09470 whole entry): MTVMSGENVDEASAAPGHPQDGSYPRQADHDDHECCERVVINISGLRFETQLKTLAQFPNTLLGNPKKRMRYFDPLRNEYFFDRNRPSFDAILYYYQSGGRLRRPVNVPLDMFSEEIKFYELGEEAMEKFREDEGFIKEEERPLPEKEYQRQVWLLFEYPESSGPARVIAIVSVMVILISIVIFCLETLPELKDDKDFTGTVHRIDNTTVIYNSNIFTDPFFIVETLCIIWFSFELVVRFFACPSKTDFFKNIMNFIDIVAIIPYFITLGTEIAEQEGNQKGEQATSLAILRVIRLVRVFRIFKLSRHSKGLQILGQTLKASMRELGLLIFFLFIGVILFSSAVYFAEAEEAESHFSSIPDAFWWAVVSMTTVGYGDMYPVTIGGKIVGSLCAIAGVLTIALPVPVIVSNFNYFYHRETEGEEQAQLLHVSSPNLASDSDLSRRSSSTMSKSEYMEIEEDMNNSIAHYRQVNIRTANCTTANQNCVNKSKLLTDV

effect on KV1.1 (KV1.1): no significant effects
effect on KV1.2 (KV1.2): no significant effects
effect on KV1.4 (KV1.4): no significant effects
effect on KV1.5 (KV1.5): no significant effects
effect on KV1.6 (KV1.6): no significant effects
effect on KV2.1 (KV2.1): no significant effects
effect on KV4.2 (KV4.2): no significant effects
effect on KV10.1 (KV10.1): no significant effects
SMILES: O=c1ccc2c(OCCCCOc3ccccc3)c3ccoc3cc2o1 [PAP-1 (1), PAP-1]

— article PMC10252048, “Correction: Gubič et al. Design of New Potent and Selective Thiophene-Based KV1.3 Inhibitors and Their Potential for Anticancer Activity. Cancers 2022, 14, 2595” (Cancers, 2023)
